From patent publication US20190374536A1, “METHODS OF USING FASN INHIBITORS” (FORMA Therapeutics, Inc., priority 2016, published 2019)
Marks after values point to notes of the source that are not given here.

How the values were obtained:
[1] = test system: TH17 cells differentiated in-vitro; assay: TH17 differentiation assay: inhibition of IL-17 secretion; format: cell-based; parameters: activity: dose or concentration left out as unconfirmed; details: Homo sapiens; for inhibition at 1 µM: IL-17 secretion; for activity: TH17 cells differentiated in-vitro, read-out: IL17 secretion (% of DMSO)
Excerpt: CD4+ T cells were isolated using CD4+ T cell isolation kit (Miltenyi Biotech), activated with CD3/CD28 microbeads and cultured for 7-10 days in the presence of IL-1β, IL-6, IL-21, I-23 and TGFβ and test compounds. Cells cultured with DMSO or without cytokines and/or microbeads were used as negative controls.
Read out: (1) At day 7-10, the supernatants were collected and tested for soluble 1-17. (2) Cells were also harvested and stained for intra-cellular IL-17A. (3) Cells were also stained separately by Annexin/PI for cell viability. (4) Pictures of cultures were taken for each condition.

HFD rat model = assay: High fat diet (HFD) fed rat model: steatosis, plasma/liver TG, plasma leptin; format: in vivo; details: HFD rats, 5 mg/kg QD
Excerpt: Steatosis is caused by the accumulation of triglycerides (TG) in the liver, and as such, decreases in TG may represent a potential marker for activity on steatosis. The obese phenotype of HFD model is dependent on the incorporation of high dietary fat and DNL-derived fat. […] The key endpoints of this study were to evaluate the relationship between dose schedule and exposure with changes in liver steatosis score and liver TG. For these studies, male SD rats (6-8 week old) were fed a high fat diet (D124942, Research Diets Inc.) for four weeks to develop the obese phenotype and then sorted into treatment groups (N=8) based on mean body weight. […] Rosiglitazone 5 mg/kg QD was included as a positive control. Plasma and serum samples were collected weekly throughout the study. After 28 days of treatment, animals were sacrificed and liver and plasma samples were collected. Livers were fixed in formalin, processed for H&E staining, and evaluated by a pathologist specializing in NASH.
Two HFD studies were conducted. […] The second HFD study investigated the endpoints of steatosis and liver and plasma markers of lipogenesis (including TG and FFA).

HSD rat model = assay: High-sucrose diet (HSD) fed rat model: plasma/liver TG, plasma leptin; format: in vivo; details: HSD rats, 5 mg/kg QD
Excerpt: A HSD represents an alternative experimental model for obesity and steatosis. In this model, 60-70% of the caloric intake is from simple carbohydrates, and thus, the primary source of increased TG is through DNL.
Male SD rats (6-8 week old) were fed a HSD (D10001, Research Diets Inc.) for six weeks to develop the obese phenotype and then sorted into treatment groups (N=8 each) based on mean body weight.

Structure (SMILES): Cn1cnc2cc(-c3ccc(C(=O)N4CCN(C(=O)C5(O)CC5)CC4)c(F)c3)ccc21 [compound 4]
- inhibition at 1 µM [1]: 85%
- activity [1]: 15%

Structure (SMILES): CN(CCOc1ccc(CC2SC(=O)NC2=O)cc1)c1ccccn1 (stereo not shown) [Rosiglitazone]
- Plasma TG % Decrease of treatment group (mean) vs. vehicle treated HFD group (mean) (HFD rat model; Day 14): 52.5%
- Plasma TG Raw Data (Mean ± SEM) (HFD rat model; Day 14): 0.48 ± 0.02 mmol/L
- Plasma TG % Decrease of treatment group (mean) vs. vehicle treated HFD group (mean) (HFD rat model; Day 26): 60.0%
- Plasma TG Raw Data (Mean ± SEM) (HFD rat model; Day 26): 0.46 ± 0.05 mmol/L
- Liver TG % Decrease of treatment group (mean) vs. vehicle treated HFD group (mean) (HFD rat model; Day 28): 70.0%
- Liver TG Raw Data (Mean ± SEM) (HFD rat model; Day 28): 17.2 ± 0.8 µmol/g
- Plasma Leptin (Mean ± SEM) (HFD rat model; Day 28): 16.0 ± 1.2 ng/mL
- Plasma TG % Decrease of treatment group (mean) vs. vehicle treated HSD group (mean) (HSD rat model; Day 14): 60.6%
- Plasma TG Raw Data (Mean ± SEM) (HSD rat model; Day 14): 1.07 ± 0.10 mmol/L
- Plasma TG % Decrease of treatment group (mean) vs. vehicle treated HSD group (mean) (HSD rat model; Day 26): 62.3%
- Plasma TG Raw Data (Mean ± SEM) (HSD rat model; Day 26): 1.24 ± 0.17 mmol/L
- Liver TG % Decrease of treatment group (mean) vs. vehicle treated HSD group (mean) (HSD rat model; Day 28): 41.2 * %
- Liver TG Raw Data (Mean ± SEM) (HSD rat model; Day 28): 8.5 ± 1.5 µmol/g
- Plasma Leptin (Mean ± SEM) (HSD rat model; Day 28): 12.6 ± 2.5 ng/mL

Structure (SMILES): C[C@H]1CN(C(=O)c2ccc(-c3nc4ccc(Cl)cc4o3)cc2)CCN1C(=O)C1(O)CC1 [compound 11]
- inhibition at 1 µM [1]: 67%
- activity [1]: 33%

Structure (SMILES): C[C@H]1CN(C(=O)c2ccc(-c3ccc4c(c3)ncn4C)cc2F)CCN1C(=O)C1(O)CC1 [compound 8]
- inhibition at 1 µM [1]: 77%
- activity [1]: 23%

Structure (SMILES): O=C(c1ccc(-c2nc3ccc(F)cc3o2)cc1F)N1CCN(C(=O)C2(O)CC2)CC1 [compound 6]
- inhibition at 1 µM [1]: 53%
- activity [1]: 47%

Structure (SMILES): Cn1ncc2ccc(-c3ccc(C(=O)N4CCN(C(=O)C5(N)CC5)CC4)cc3)cc21 [compound 5]
- inhibition at 1 µM [1]: 74%
- activity [1]: 26%

Structure (SMILES): Cn1cnc2cc(-c3ccc(C(=O)N4CCN(C(=O)C5(O)CC5)CC4)cc3)ccc21 [compound 9]
- inhibition at 1 µM [1]: 76%
- activity [1]: 24%

Structure (SMILES): O=C(c1ccc(-c2cc(Cl)ccc2F)cc1)N1CCN(C(=O)C2(O)CC2)CC1 [compound 3]
- inhibition at 1 µM [1]: 75%
- activity [1]: 25%

Structure (SMILES): O=C(c1ccc(-c2nc3ccc(F)cc3o2)cc1)N1CCN(C(=O)C2(O)CC2)CC1 [compound 1]
- inhibition at 1 µM [1]: 46%
- activity [1]: 54%

Structure (SMILES): C[C@@H]1CN(C(=O)c2ccc(-c3nc4ccc(F)cc4o3)cc2)CCN1C(=O)C1(O)CC1 [compound 7]
- inhibition at 1 µM [1]: 66%
- activity [1]: 34%

Structure (SMILES): O=C(c1ccc(-c2nc3ccc(Cl)cc3o2)cc1)N1CCN(C(=O)C2(O)CC2)CC1 [compound 2]
- inhibition at 1 µM [1]: 79%
- activity [1]: 21%
